From ChEMBL document CHEMBL3414430 (J Med Chem, 2015)
Converted amounts (≈) assume the structure as drawn. The source made the active and inactive calls. The calls are words filed in the database; no cut-off is given here.

Legend:
Histone deacetylase 8 = biological target: T1, Histone deacetylase 8 (Homo sapiens, UniProt Q9BY41)
T1 sequence (Q9BY41 whole entry): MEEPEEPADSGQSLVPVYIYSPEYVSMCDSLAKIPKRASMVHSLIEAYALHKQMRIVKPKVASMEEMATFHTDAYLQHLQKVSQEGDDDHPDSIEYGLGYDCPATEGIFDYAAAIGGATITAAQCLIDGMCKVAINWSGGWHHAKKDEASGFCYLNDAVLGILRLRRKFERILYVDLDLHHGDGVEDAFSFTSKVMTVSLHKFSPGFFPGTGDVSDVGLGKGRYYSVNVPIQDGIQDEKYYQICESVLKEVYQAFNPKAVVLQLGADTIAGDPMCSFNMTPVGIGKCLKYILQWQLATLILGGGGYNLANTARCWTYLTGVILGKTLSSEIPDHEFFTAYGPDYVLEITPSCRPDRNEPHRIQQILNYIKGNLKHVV
Description: Inhibition of HDAC8 (unknown origin) using RHK(Ac)K(Ac)AMC as substrate

Cytochrome P450 1A2 = biological target: T2, Cytochrome P450 1A2 (Homo sapiens, UniProt P05177); test: Inhibition of CYP1A2 in human liver microsomes preincubated for 10 mins followed by NADPH addition measured after 30 mins by LC-MS/MS analysis; type: ADME
T2 sequence (P05177 whole entry): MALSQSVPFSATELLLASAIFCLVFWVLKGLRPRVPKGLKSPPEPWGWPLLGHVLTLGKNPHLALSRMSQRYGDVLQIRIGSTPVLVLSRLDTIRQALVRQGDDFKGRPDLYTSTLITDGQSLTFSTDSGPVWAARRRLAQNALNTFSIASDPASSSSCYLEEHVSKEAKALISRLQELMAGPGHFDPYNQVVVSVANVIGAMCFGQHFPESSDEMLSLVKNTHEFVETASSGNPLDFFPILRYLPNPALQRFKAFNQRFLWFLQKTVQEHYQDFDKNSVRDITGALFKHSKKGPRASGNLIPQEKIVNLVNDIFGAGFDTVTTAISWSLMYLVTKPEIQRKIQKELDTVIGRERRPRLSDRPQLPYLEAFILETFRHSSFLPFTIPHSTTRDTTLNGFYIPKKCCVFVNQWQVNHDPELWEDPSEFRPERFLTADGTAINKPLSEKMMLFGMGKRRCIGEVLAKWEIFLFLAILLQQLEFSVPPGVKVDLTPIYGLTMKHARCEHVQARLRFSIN

[1] = Oral bioavailability in ICR mouse at 100 mg/kg; type: ADME, organism-based; details: in vivo
Cytochrome P450 2C9 = Cytochrome P450 2C9 (Homo sapiens, UniProt P11712); test: Inhibition of CYP2C9 in human liver microsomes preincubated for 10 mins followed by NADPH addition measured after 30 mins by LC-MS/MS analysis; type: ADME
Cytochrome P450 2C9, sequence (P11712 whole entry): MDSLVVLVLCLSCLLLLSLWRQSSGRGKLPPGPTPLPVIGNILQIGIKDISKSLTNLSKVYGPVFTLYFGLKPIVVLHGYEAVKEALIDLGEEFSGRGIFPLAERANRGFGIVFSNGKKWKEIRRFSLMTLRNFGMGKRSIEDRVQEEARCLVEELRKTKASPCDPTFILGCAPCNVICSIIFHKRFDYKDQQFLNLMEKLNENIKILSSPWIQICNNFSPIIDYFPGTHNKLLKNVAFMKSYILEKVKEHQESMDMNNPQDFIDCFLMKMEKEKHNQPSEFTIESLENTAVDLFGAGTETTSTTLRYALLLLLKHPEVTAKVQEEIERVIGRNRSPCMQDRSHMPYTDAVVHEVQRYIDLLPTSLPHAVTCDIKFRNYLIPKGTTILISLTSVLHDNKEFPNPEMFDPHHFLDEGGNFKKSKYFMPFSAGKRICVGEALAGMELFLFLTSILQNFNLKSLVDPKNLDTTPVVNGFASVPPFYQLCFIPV

Histone deacetylase 1 = Histone deacetylase 1 (Homo sapiens, UniProt Q13547)
Histone deacetylase 1, sequence (Q13547 whole entry): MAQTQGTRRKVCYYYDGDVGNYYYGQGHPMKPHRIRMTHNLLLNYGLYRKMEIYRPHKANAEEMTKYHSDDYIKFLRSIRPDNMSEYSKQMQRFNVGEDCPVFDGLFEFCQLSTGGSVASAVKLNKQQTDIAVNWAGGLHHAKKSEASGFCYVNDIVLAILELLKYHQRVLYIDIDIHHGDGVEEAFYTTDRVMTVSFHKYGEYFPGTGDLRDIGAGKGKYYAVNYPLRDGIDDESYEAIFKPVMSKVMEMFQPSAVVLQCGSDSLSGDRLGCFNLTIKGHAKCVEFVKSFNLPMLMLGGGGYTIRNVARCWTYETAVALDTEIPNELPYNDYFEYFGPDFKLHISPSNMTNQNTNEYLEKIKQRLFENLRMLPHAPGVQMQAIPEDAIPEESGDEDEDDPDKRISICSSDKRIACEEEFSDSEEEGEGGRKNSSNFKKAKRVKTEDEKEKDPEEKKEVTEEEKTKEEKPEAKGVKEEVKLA
Description: Inhibition of HDAC1 (unknown origin) using RHKK(Ac)AMC as substrate

[2] = biological target: T3, Protein deacetylase HDAC6 (Homo sapiens, UniProt Q9UBN7)
T3 sequence (Q9UBN7 whole entry): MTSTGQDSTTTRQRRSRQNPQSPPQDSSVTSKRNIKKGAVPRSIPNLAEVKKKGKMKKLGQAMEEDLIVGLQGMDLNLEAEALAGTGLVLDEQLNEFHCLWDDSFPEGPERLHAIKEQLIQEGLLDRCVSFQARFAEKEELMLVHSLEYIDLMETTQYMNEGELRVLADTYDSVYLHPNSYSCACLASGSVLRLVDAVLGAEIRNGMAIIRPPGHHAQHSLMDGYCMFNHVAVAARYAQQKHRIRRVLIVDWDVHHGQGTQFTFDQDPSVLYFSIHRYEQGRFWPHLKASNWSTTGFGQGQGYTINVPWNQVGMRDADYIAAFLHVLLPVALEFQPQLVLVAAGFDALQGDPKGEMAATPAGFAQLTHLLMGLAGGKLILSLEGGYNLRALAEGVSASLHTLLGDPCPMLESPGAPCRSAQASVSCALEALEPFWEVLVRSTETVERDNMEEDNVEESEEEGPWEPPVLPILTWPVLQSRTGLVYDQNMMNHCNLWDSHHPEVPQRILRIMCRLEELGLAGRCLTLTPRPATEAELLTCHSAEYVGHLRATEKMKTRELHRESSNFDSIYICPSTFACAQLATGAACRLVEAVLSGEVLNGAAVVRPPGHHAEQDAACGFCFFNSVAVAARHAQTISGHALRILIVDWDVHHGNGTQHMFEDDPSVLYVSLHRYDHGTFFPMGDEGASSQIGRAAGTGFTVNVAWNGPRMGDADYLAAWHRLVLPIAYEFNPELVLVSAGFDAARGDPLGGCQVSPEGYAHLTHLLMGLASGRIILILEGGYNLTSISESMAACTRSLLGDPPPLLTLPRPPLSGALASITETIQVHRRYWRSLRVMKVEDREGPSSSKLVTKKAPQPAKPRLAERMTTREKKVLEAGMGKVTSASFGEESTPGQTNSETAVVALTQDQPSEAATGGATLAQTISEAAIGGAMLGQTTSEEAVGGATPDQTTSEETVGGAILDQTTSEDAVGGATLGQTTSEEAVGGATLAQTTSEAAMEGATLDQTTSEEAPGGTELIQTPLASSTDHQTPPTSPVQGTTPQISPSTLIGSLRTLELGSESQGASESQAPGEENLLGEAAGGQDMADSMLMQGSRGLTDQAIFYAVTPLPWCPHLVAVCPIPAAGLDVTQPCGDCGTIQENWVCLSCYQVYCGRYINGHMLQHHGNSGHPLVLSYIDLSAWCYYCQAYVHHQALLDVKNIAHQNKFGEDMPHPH
Description: Inhibition of HDAC6 (unknown origin) using RHKK(Ac)AMC as substrate

Cytochrome P450 2C19 = Cytochrome P450 2C19 (Homo sapiens, UniProt P33261); test: Inhibition of CYP2C19 in human liver microsomes preincubated for 10 mins followed by NADPH addition measured after 30 mins by LC-MS/MS analysis; type: ADME
Cytochrome P450 2C19, sequence (P33261 whole entry): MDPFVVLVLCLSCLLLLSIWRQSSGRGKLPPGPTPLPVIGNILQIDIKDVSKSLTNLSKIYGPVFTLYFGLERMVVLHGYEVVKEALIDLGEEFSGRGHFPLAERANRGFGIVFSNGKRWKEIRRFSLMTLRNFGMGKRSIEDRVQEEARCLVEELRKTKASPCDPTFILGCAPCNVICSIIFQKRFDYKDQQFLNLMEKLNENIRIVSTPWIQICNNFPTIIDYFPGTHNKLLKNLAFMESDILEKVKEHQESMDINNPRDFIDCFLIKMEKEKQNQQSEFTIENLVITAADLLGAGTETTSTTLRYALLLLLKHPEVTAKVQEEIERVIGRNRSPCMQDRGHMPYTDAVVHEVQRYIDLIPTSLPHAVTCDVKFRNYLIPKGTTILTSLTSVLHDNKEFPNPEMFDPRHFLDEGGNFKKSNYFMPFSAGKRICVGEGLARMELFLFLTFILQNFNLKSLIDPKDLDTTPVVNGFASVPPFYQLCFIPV

[3] = Intrinsic clearance in mouse liver microsomes at 1 uM preincubated for 10 mins followed by NADPH addition measured over 30 mins by LC-MS/MS analysis; type: ADME; details: read-out: CLH
Mus musculus [4] = test: AUC (0 to infinity) in ICR mouse at 100 mg/kg, po; type: ADME, organism-based, Plasma; parameters: time infinity, dose 100 mg/kg, route oral; details: in vivo
Mus musculus [5] = test: AUC (0 to infinity) in ICR mouse at 10 mg/kg, iv; type: ADME, organism-based, Plasma; parameters: time infinity, dose 10 mg/kg, route intravenous; details: in vivo
Cytochrome P450 3A4 = Cytochrome P450 3A4 (Homo sapiens, UniProt P08684); test: Inhibition of CYP3A4 in human liver microsomes preincubated for 10 mins followed by NADPH addition measured after 30 mins by LC-MS/MS analysis; type: ADME
Cytochrome P450 3A4, sequence (P08684 whole entry): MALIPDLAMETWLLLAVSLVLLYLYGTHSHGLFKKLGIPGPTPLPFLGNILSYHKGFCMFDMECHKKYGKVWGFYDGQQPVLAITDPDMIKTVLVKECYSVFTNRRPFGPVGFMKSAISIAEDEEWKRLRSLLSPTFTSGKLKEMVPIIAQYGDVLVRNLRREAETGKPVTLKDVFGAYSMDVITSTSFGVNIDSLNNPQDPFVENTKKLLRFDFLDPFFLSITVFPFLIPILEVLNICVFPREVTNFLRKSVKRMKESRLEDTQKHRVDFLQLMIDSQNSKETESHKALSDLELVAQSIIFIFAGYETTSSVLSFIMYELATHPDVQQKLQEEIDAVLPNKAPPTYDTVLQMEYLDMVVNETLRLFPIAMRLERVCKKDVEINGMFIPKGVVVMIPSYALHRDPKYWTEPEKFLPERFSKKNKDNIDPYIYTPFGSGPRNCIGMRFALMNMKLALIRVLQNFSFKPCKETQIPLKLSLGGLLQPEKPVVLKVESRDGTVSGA

[6] = Cmax in ICR mouse at 100 mg/kg, po; type: ADME, organism-based; parameters: dose 100 mg/kg, route oral; details: in vivo
[7] = biological target: T3, Protein deacetylase HDAC6; remark: listed apart in the source
Description: Inhibition of HDAC6 in human A549 cells assessed as induction of tubulin acetylation after 17 to 18 hrs by ELISA

Cytochrome P450 2D6 = Cytochrome P450 2D6 (Homo sapiens, UniProt P10635); test: Inhibition of CYP2D6 in human liver microsomes preincubated for 10 mins followed by NADPH addition measured after 30 mins by LC-MS/MS analysis; type: ADME
Cytochrome P450 2D6, sequence (P10635 whole entry): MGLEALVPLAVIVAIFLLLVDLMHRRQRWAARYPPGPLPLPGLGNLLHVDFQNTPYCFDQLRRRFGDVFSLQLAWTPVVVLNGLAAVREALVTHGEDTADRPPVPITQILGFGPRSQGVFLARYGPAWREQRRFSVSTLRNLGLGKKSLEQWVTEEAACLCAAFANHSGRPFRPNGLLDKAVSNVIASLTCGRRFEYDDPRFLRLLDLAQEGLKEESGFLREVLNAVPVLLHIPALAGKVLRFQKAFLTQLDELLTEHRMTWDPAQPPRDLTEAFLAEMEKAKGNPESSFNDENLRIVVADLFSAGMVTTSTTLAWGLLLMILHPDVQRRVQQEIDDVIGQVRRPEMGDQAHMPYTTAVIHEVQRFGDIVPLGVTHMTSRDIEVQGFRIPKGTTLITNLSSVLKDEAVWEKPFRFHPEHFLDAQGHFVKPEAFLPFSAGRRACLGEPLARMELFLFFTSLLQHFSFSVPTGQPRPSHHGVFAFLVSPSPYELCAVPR

[8] = Intrinsic clearance in human liver microsomes at 1 uM preincubated for 10 mins followed by NADPH addition measured over 30 mins by LC-MS/MS analysis; type: ADME; details: read-out: CLH
[9] = Half life in ICR mouse at 10 mg/kg, iv; type: ADME, organism-based; parameters: dose 10 mg/kg, route intravenous; details: in vivo
[10] = Plasma clearance in ICR mouse; type: ADME, organism-based
[11] = Solubility of the compound in PBS measured after overnight incubation by LYSA assay; type: physicochemical
[12] = Cmax in ICR mouse at 50 mg/kg, po; type: ADME, organism-based; parameters: dose 50 mg/kg, route oral; details: in vivo
[13] = Half life in ICR mouse at 25 mg/kg, iv; type: ADME, organism-based; parameters: dose 25 mg/kg, route intravenous; details: in vivo
[14] = biological target: Histone deacetylase 1/2/3/6 (Homo sapiens) (UniProt Q13547+O15379+Q9UBN7+Q92769); details: HeLa, at 10 µM
Histone deacetylase 1/2/3/6 (Homo sapiens), sequence (O15379 whole entry, looked up, one chain of several): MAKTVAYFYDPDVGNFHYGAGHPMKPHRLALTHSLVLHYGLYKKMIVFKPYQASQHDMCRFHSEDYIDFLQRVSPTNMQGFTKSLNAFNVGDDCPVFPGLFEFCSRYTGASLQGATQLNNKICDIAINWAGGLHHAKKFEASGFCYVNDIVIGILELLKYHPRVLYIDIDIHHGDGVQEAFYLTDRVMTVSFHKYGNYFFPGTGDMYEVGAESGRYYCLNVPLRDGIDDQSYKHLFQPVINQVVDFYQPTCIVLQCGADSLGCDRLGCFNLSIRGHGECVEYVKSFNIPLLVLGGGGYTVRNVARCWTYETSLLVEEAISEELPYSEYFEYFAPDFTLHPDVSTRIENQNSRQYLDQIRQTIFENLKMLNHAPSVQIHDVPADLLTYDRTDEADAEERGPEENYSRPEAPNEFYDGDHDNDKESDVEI
Histone deacetylase 1/2/3/6 (Homo sapiens), sequence (Q13547 whole entry, looked up, one chain of several): as the sequence (Q13547 whole entry) above
Histone deacetylase 1/2/3/6 (Homo sapiens), sequence (Q92769 whole entry, looked up, one chain of several): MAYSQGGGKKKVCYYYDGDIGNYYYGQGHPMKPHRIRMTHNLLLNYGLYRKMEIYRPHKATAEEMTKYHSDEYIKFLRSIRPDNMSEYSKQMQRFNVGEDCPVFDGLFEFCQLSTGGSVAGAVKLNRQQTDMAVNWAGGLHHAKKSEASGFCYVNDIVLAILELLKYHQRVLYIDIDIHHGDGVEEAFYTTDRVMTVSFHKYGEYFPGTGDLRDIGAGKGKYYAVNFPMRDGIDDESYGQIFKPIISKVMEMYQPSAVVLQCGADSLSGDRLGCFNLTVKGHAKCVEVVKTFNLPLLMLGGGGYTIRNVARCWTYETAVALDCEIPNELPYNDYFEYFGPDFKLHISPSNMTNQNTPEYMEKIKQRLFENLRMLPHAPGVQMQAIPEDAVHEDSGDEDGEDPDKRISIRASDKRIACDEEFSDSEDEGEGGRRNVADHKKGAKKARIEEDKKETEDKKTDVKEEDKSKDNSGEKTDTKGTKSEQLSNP
Description: Inhibition of HDAC1/HDAC2/HDAC3 in human HeLa cells assessed as induction of p21 gene expression at 10 uM after 15 hrs by luciferase reporter gene assay relative to HDAC1 inhibitor SNDX-275

Mus musculus [15] = test: AUC (0 to infinity) in ICR mouse at 25 mg/kg, iv; type: ADME, organism-based, Plasma; parameters: time infinity, dose 25 mg/kg, route intravenous; details: in vivo
Mus musculus [16] = test: AUC (0 to infinity) in ICR mouse at 50 mg/kg, po; type: ADME, organism-based, Plasma; parameters: time infinity, dose 50 mg/kg, route oral; details: in vivo
[17] = Oral bioavailability in ICR mouse at 50 mg/kg; type: ADME, organism-based; details: in vivo

With `C[C@]1(Nc2ccc(C(=O)NO)cc2)CCN(c2ccc(Cl)cc2)C1=O` the IC50 (Histone deacetylase 8) was 180 nM, the IC50 (Cytochrome P450 1A2) was > 50000 nM and the bioavailability [1] was 55%. The IC50 (Cytochrome P450 2C9) was > 50000 nM, the IC50 (Histone deacetylase 1) was 74100 nM and the IC50 [2] was 17 nM. The IC50 (Cytochrome P450 2C19) was > 50000 nM, the CLint scaled at 1 µM [3] was 38 mL/min/kg and the AUC (Mus musculus [4]) was 10500 µg/L/h. For the same compound, the AUC (Mus musculus [5]) was 1900 µg/L/h, the IC50 (Cytochrome P450 3A4) was > 50000 nM and the Cmax [6] was 626 ng/mL. The EC50 [7] was 300 nM, the IC50 (Cytochrome P450 2D6) was > 50000 nM and the CLint scaled at 1 µM [8] was 3 mL/min/kg. It also gave a half-life [9] of 2.1 h, a clearance [10] of 87 mL/min/kg and a solubility [11] of 22 µg/mL (≈ 61.1 µM).
Work on `O=C(NO)c1ccc(NC2CCN(c3ccccc3)C2=O)cc1` (stereo unspecified) yielded an IC50 (Histone deacetylase 8) of 210 nM, an IC50 (Histone deacetylase 1) of 19500 nM and an IC50 [2] of 380 nM. The CLint scaled at 1 µM [3] was 26 mL/min/kg, the Cmax [12] was 34 ng/mL and the half-life [13] was 0.7 h. The CLint scaled at 1 µM [8] was 4.6 mL/min/kg, the inhibition [14] was “inactive” and the clearance [10] was 108 mL/min/kg. For the same compound, the AUC (Mus musculus [15]) was 3850 µg/L/h, the solubility [11] was 33 µg/mL (≈ 106 µM) and the AUC (Mus musculus [16]) was 125 µg/L/h. The bioavailability [17] was ≤ 1%.
